Series [1] has as its system M1 protein-induced release of HBP from PMNs in human blood. The conditions noted are these: M1 protein 1 μg/ml, 30 min 37° C., FIG. 2 and FIG. 5B.
Method: HBP release. 100 μl human blood were diluted in PBS to a final volume of 1.0 ml and incubated with various PMNs-activating components for 30 min at 37° C. Cells were centrifuged (300×g for 15 min) and the supernatant was analyzed by sandwich ELISA. In order to quantify the total amount of HBP in blood, cells were lysed with 0.02% (v/v) Triton X-100, and pelleted as described above.
Series [2] relates to mice of the C57BL/6 strain. The conditions noted are these: for breathing of mice: thirty minutes after i.v. M1 protein 15 μg/animal, alone or plus peptide 400 μg/animal; for lung damage after injection of the protein alone, scanning electron microscopy / lung lesions after injection of the protein alone, light microscopy: i.v., M1 protein 15 μg/animal, 30 min.
The subject of the next series is PMNs in human blood. As to the kind of experiment: HBP release in human blood by streptococcal and other PMN-activating components. The conditions noted are these: for release of HBP: added to human blood, HBP in supernatant by ELISA, FIG. 1. Type of series: cell-based. On the technique in general: ELISA stands for enzyme-linked immunosorbent assay.
Series [3] concerns the target T1, fibrinogen (Homo sapiens, UniProt P02671+P02675+P02679).
T1 sequence (P02671 20-644 isoform P02671-2 limits assumed): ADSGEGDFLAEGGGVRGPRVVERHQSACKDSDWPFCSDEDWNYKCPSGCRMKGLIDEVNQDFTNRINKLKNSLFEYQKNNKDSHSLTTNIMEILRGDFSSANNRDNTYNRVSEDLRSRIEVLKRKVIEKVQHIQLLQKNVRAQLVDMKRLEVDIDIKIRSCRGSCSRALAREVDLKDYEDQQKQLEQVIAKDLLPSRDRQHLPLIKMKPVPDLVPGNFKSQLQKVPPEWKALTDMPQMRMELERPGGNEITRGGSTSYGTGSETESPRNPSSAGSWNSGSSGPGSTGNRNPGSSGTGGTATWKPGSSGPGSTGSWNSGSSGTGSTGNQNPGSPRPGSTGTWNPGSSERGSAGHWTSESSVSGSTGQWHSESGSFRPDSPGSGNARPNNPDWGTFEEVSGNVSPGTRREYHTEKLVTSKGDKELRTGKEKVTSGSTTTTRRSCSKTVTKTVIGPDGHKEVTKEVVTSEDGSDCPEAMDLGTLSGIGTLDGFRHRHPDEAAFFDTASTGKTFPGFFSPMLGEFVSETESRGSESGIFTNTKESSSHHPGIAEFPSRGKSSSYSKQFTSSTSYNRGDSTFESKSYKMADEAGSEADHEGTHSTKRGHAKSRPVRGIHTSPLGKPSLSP
T1 sequence (P02675 31-491): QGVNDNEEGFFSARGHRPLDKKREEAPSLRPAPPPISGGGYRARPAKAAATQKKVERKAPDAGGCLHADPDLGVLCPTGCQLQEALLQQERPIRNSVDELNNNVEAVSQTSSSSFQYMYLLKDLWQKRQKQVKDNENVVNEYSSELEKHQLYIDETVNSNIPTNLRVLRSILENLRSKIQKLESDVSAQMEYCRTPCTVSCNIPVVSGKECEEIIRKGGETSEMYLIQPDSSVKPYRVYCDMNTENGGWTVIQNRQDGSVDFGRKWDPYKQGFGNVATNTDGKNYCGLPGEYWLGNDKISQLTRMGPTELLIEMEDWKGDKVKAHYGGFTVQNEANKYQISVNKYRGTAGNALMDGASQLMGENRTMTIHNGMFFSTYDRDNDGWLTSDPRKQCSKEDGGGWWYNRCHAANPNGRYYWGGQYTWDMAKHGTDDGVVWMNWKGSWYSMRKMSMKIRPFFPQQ
T1 sequence (P02679 27-453): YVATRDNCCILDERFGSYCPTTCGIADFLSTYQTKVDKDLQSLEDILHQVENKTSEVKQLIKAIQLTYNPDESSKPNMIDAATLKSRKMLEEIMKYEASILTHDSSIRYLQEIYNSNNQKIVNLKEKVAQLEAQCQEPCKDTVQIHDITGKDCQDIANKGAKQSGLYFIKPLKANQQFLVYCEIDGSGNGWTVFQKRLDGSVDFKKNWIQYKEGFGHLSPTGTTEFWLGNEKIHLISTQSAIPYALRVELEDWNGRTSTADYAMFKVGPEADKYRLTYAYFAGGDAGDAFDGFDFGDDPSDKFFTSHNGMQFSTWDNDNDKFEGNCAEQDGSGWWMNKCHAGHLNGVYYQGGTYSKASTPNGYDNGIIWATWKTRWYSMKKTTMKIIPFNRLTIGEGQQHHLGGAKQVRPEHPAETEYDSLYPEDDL
In words: Fibrinogen binding on Western blot. The conditions noted are these: literature statement, demonstrated in the applicant's blot probed with fibrinogen 2 μg/ml. The protocol:
SDS-polyacrylamide gel electrophoresis, Western blotting, and immunoprinting. Proteins were separated by 12.5% (w/v) polyacrylamide gel electrophoresis in the presence of 1% (w/v) SDS (Laemmli, 1970, Nature, 227, 680-685). Molecular weight markers were from Sigma Chemical Co. (St. Louis, Mo.). The resolved proteins were visualized by the silver stain technique. Proteins were also transferred onto nitrocellulose membranes for 30 min at 100 mA (Khyse-Andersen, 1984, J. Biochem. Biophys. Methods, 10, 203-209). The membranes were blocked with PBS containing 5% (w/v) dry milk powder and 0.05% (w/v) Tween-20, pH 7.4. Immunoprinting of the transferred proteins was done according to Towbin et al. (Towbin et al., 1979, Proc. Natl. Acad. Sci. USA, 76, 4350-4354). Polyclonal antibodies against M1 protein, diluted 1:50000 in the blocking buffer, was used. Bound antibodies were detected using a peroxidase-conjugated secondary antibodies against rabbit IgG (dilution 1:3000) followed by a chemiluminescence detection method. Alternatively, membranes were blocked, incubated with fibrinogen (2 μg/ml) followed by immunodetection with antibodies to fibrinogen (1:1000) and peroxidase-conjugated secondary antibodies against rabbit immunoglobulin (1:3000 diluted).
(In general: A western blot detects proteins with antibodies after separation by electrophoresis.)

Series [4] addresses T2, Fibrinogen (human, UniProt P02671 20-630; P02675 31-491; P02679 27-453).
T2 construct: also called human fibrinogen; purified fibrinogen
In words: ligand blot: SDS-PAGE, transfer to nitrocellulose, probed with fibrinogen, immunodetection of bound fibrinogen.

Peptide text beside a SMILES is read from it.

From patent US20070172471A1, “Method for identifying an anti- streptococcal agent and its use for treating streptococcal infections” (Hansa Medical AB, priority 2003, published 2007) come the findings set out here.

For `COc1cc2ncnc(Nc3cccc(Cl)c3)c2cc1OC` [AG1478], the “effect on M1 protein-induced release of HBP” value (“effect” for short) in series [1] is recorded as “did not interfere with the secretion of HBP”.

`O=C(O)CN(CCOCCOCCN(CC(=O)O)CC(=O)O)CC(=O)O` [EGTA]: in series [1], the “effect” value is reported as “blocked HBP release”.

Regarding `CN(C)CCCn1cc(C2=C(c3c[nH]c4ccccc34)C(=O)NC2=O)c2ccccc21` [GF109203], the “effect” value in series [1] is recorded as “did not interfere with the secretion of HBP”.

As for `N=C(N)NCCC[C@H](NC(=O)[C@H](Cc1c[nH]cn1)NC(=O)CN)C(=O)N1CCC[C@H]1C(=O)O` [Gly-His-Arg-Pro] (H-GHRP-OH), the breathing of mice entry in series [2] was “clearly affected”.

With `O=S(=O)(NCCNC/C=C/c1ccc(Br)cc1)c1cccc2cnccc12` [H-89], the “effect” value in series [1] is on record as “did not interfere with the secretion of HBP”.

With `COc1cccc(-c2cc(=O)c3ccccc3o2)c1N` [PD98059], the “effect” value in series [1] is “did not interfere with the secretion of HBP”.

Turning to `COc1ccc2c(c1)CC[C@@H]1[C@@H]2CC[C@]2(C)[C@@H](NCCCCCCN3C(=O)C=CC3=O)CC[C@@H]12` [U-73122], the “effect” value in series [1] is given as “did not interfere with the secretion of HBP”.

Take `CSCC[C@H](NC=O)C(=O)N[C@@H](CC(C)C)C(=O)N[C@@H](Cc1ccccc1)C(=O)O` [fMLP, formyl-methionyl-leucyl-phenylalanine]: the “release of HBP” value in the series with PMNs in human blood (30 min 37° C.) is reported as “evoked secretion of HBP”.

On to `O=c1c(-c2ccc(O)cc2)coc2cc(O)cc(O)c12` [genistein], for which the “effect” value in series [1] is “blocked the release of HBP almost completely”.

Regarding “M1 protein: recombinant M1 protein of Streptococcus pyogenes expressed in E. coli (SEQ ID NO: 1)”, in the series with fibrinogen [3], the binding of fibrinogen result is reported as “binds fibrinogen with high affinity”. Besides, the “HBP stored in PMNs mobilized” value in the series on PMNs in human blood (M1 protein final concentration 1 μg/ml, human whole blood, 30 min 37° C., FIG. 1A) is listed as “about 63%”. In the series on PMNs in human blood (blood diluted 1/10, FIG. 3B), the “M1 protein concentration of maximal release of HBP from PMNs” value worked out at 1 µg/mL. Also, the “ratio of lung area containing protein aggregates versus total lung area” value in series [2] (M1 protein alone i.v., six lung sections per animal, electron microscopy) worked out at 90±2%. Also, in series [2], the “lung damage after injection of the protein alone, scanning electron microscopy” value is listed as “severe leakage of erythrocytes”; the “lung lesions after injection of the protein alone, light microscopy” value was “severe hemorrhage and tissue destruction”; the breathing of mice entry is reported as “clearly affected”.

As for SpeB: streptococcal cysteine proteinase, in the series with PMNs in human blood (30 min 37° C.), the “release of HBP” value is recorded as “did not induce HBP release”.

hyaluronic acid: the “release of HBP” value in the series on PMNs in human blood (30 min 37° C.) was “did not induce HBP release”.

Turning to lipoteichoic acid, the “release of HBP” value in the series on PMNs in human blood (30 min 37° C.) is recorded as “evoked secretion of HBP”.

As for pertussis toxin, the “effect” value in series [1] is reported as “none of the two components inhibited the release of HBP”.

B1: Protein H (IgG-binding surface protein of S. pyogenes AP1), recombinant from E. coli (other)
chain: EGAKIDWQEEYKKLDEDNAKLVEVVETTSLENEKLKSENEENKKNLDKLSKENQGKLEKLELDYLKKLDHEHKEHQKEQQEQEERQKNQEQLERKYQREVEKRYQEQLQKQQQLETEKQISEASRKSLSRDLEASRAAKKDLEAEHQKLEAEHQKLKEDKQISDASRQGLSRDLEASRAAKKELEANHQKLEAEHQKLKEDKQISDASRQGLSRDLEASRAAKKELEANHQKLEAEAKALKEQLAKQAEELAKLRAGKASDSQTPDTKPGNKAVPGKGQAPQAGTKPNQNKAPMKETKRQLPST
notes: also called purified protein H
B1: the binding result with Fibrinogen [4] was “no binding”.

B2: protein H: IgG-binding surface protein of AP1 bacteria, closely related to M1 protein, does not bind fibrinogen (protein)
chain: B1 chain
As for B2, the binding of fibrinogen result in the series with fibrinogen [3] is recorded as “shows no interaction with fibrinogen”. Moreover, in the series with PMNs in human blood (30 min 37° C.), the “release of HBP” value is “Only minute amounts”. In addition, in series [2], the “lung damage after injection of the protein alone, scanning electron microscopy” value is reported as “did neither cause serious bleeding” and the “lung lesions after injection of the protein alone, light microscopy” value is given as “no hemorrhage”.
